Experimental data taken from the supplement of paper PMC13380429.

Legend:
Conditions in all cases: 72 h
Caco-2 [1] = assay: cell viability relative to DMSO; higher = less toxic
Calu-3 [2] = assay: as above
HepG2 [3] = assay: as above
Vero E6 [4] = assay: as above
Caco-2 [5] = assay: relative viability EC50 (midpoint between 100% and the lowest measured viability); higher = less toxic
Calu-3 [6] = assay: as above
HepG2 [7] = assay: as above
Vero E6 [8] = assay: as above
Caco-2 [9] = assay: drug sensitivity score (DSS) for viability; higher = more toxic; extreme values may be limits of the assay
Calu-3 [10] = assay: as above
HepG2 [11] = assay: as above
Vero E6 [12] = assay: as above
U2OS [13] = assay: cell viability relative to DMSO; higher = less toxic
U2OS [14] = assay: drug sensitivity score (DSS) for viability; higher = more toxic; extreme values may be limits of the assay
U2OS [15] = assay: relative viability EC50 (midpoint between 100% and the lowest measured viability); higher = less toxic

Structure (SMILES) | cell viability (Caco-2 [1]; 1 nM) | cell viability (Caco-2 [1]; 10 nM) | cell viability (Caco-2 [1]; 100 nM) | cell viability (Caco-2 [1]; 1000 nM) | cell viability (Caco-2 [1]; 10000 nM) | cell viability (Calu-3 [2]; 1 nM) | cell viability (Calu-3 [2]; 10 nM) | cell viability (Calu-3 [2]; 100 nM) | cell viability (Calu-3 [2]; 1000 nM) | cell viability (Calu-3 [2]; 10000 nM) | cell viability (HepG2 [3]; 1 nM) | cell viability (HepG2 [3]; 10 nM) | cell viability (HepG2 [3]; 100 nM) | cell viability (HepG2 [3]; 1000 nM) | cell viability (HepG2 [3]; 10000 nM) | cell viability (Vero E6 [4]; 1 nM) | cell viability (Vero E6 [4]; 10 nM) | cell viability (Vero E6 [4]; 100 nM) | cell viability (Vero E6 [4]; 1000 nM) | cell viability (Vero E6 [4]; 10000 nM) | relative viability EC50 (Caco-2 [5]) | relative viability EC50 (Calu-3 [6]) | relative viability EC50 (HepG2 [7]) | relative viability EC50 (Vero E6 [8]) | drug sensitivity score (Caco-2 [9]) | drug sensitivity score (Calu-3 [10]) | drug sensitivity score (HepG2 [11]) | drug sensitivity score (Vero E6 [12]) | cell viability (U2OS [13]; 1 nM) | cell viability (U2OS [13]; 10 nM) | cell viability (U2OS [13]; 100 nM) | cell viability (U2OS [13]; 1000 nM) | cell viability (U2OS [13]; 10000 nM) | drug sensitivity score (U2OS [14]) | relative viability EC50 (U2OS [15])
C[C@H](CCC(=O)O)[C@H]1CC[C@H]2[C@@H]3CC[C@@H]4C[C@H](O)CC[C@]4(C)[C@H]3CC[C@]12C [lithocholic-acid] | 106% | 96.9% | 101% | 98% | 99% | 98.9% | 91.2% | 98.2% | 93.3% | 105% | 102% | 96.4% | 108% | 90.2% | 111% | 102% | 101% | 102% | 101% | 98.7% | > 10 µM | > 10 µM | > 10 µM | > 10 µM | 0 | 0 | 0 | 0 |  |  |  |  |  |  | 
CC[C@H](C)C(=O)O[C@H]1C[C@@H](C)C=C2C=C[C@H](C)[C@H](CC[C@@H]3C[C@@H](O)CC(=O)O3)[C@H]21 [lovastatin] | 92.2% | 85.7% | 84.2% | 106% | 101% | 87.8% | 106% | 96.3% | 111% | 81.6% | 91.2% | 109% | 96.4% | 92.3% | 88.7% | 100% | 100% | 96.2% | 102% | 88.1% | > 10 µM | > 10 µM | > 10 µM | > 10 µM | 0 | 0.2 | 0.1 | 0 | 94.1% | 108% | 96.2% | 96.6% | 55.4% | 2.8 | 
Cc1c(N(C)CS(=O)(=O)O)c(=O)n(-c2ccccc2)n1C [metamizole] | 98.5% | 107% | 101% | 104% | 104% | 106% | 90.6% | 102% | 95.7% | 91.1% | 99.9% | 109% | 100% | 91.6% | 102% | 97.5% | 97.1% | 95.6% | 102% | 101% | > 10 µM | > 10 µM | > 10 µM | > 10 µM | 0 | 0 | 0 | 0 |  |  |  |  |  |  | 
COC(=O)C1=C(C)NC(C)=C(C(=O)OC)C1c1ccccc1[N+](=O)[O-] [nifedipine] | 112% | 100% | 90.4% | 96.8% | 76.8% |  |  |  |  |  | 95.7% | 84.8% | 96.8% | 117% | 102% | 99.5% | 103% | 106% | 101% | 94.9% | > 10 µM | > 10 µM | > 10 µM | > 10 µM | 1.3 | 0 | 0 | 0 | 104% | 102% | 103% | 100% | 96.6% | 0 | > 10 µM
Nc1nc2[nH]cc(CCc3ccc(C(=O)N[C@@H](CCC(=O)O)C(=O)O)cc3)c2c(=O)[nH]1 [pemetrexed] | 105% | 86.8% | 87.4% | 96.5% | 79.3% | 108% | 91.9% | 86.6% | 83.3% | 76% | 85.4% | 100% | 97.3% | 39.4% | 20.1% | 85.2% | 99.1% | 91.6% | 70.9% | 45% | > 10 µM | > 10 µM | 0.558 µM | 0.768 µM | 1.2 | 3.7 | 11.8 | 6.5 | 103% | 95.5% | 107% | 100% | 68% | 1.4 | 
CC[C@H]1OC(=O)[C@@](C)(F)C(=O)[C@H](C)[C@@H](O[C@@H]2O[C@H](C)C[C@H](N(C)C)[C@H]2O)[C@](C)(OC)C[C@@H](C)C(=O)[C@H](C)[C@H]2N(CCCCn3cc(-c4cccc(N)c4)nn3)C(=O)O[C@]12C [solithromycin] | 105% | 90.6% | 101% | 107% | 93.3% | 104% | 100% | 98.4% | 97.2% | 89.8% | 102% | 102% | 87.4% | 94.2% | 58.7% | 98.2% | 100% | 97.2% | 104% | 93.4% | > 10 µM | > 10 µM |  | > 10 µM | 0 | 0 | 3.1 | 0 | 97.6% | 95.5% | 94.6% | 103% | 91% | 0 | > 10 µM
Oc1cccc(-c2c3nc(c(-c4cccc(O)c4)c4ccc([nH]4)c(-c4cccc(O)c4)c4nc(c(-c5cccc(O)c5)c5ccc2[nH]5)CC4)C=C3)c1 [temoporfin] | 96.2% | 102% | 94.3% | 94.4% | 61.4% | 90% | 96.7% | 104% | 102% | 91.6% | 104% | 105% | 103% | 106% | 86.4% | 99.3% | 100% | 98.1% | 90.5% | 77.6% |  | > 10 µM | > 10 µM | > 10 µM | 2.8 | 0 | 0.1 | 1.5 | 100% | 104% | 96.6% | 98.9% | 64.7% | 1.8 | 
c1ccc2[nH]c(-c3cscn3)nc2c1 [tiabendazole] |  |  |  |  |  | 105% | 102% | 103% | 97.8% | 110% | 116% | 104% | 102% | 97.2% | 106% | 93.2% | 96.8% | 102% | 96.3% | 106% |  | > 10 µM | > 10 µM | > 10 µM |  | 0 | 0 | 0 |  |  |  |  |  |  | 
